By Kd is commonly meant the equilibrium constant for the complex coming apart.

This note sets out measurements from ChEMBL document CHEMBL3991601, “The target landscape of clinical kinase drugs” (Science, 2017).

Calls of active or inactive are those of the source. Some results are limits rather than exact numbers.

Test [1] has as its target T1, Peroxisomal acyl-coenzyme A oxidase 3 (Homo sapiens, UniProt O15254).
T1 sequence (O15254 whole entry): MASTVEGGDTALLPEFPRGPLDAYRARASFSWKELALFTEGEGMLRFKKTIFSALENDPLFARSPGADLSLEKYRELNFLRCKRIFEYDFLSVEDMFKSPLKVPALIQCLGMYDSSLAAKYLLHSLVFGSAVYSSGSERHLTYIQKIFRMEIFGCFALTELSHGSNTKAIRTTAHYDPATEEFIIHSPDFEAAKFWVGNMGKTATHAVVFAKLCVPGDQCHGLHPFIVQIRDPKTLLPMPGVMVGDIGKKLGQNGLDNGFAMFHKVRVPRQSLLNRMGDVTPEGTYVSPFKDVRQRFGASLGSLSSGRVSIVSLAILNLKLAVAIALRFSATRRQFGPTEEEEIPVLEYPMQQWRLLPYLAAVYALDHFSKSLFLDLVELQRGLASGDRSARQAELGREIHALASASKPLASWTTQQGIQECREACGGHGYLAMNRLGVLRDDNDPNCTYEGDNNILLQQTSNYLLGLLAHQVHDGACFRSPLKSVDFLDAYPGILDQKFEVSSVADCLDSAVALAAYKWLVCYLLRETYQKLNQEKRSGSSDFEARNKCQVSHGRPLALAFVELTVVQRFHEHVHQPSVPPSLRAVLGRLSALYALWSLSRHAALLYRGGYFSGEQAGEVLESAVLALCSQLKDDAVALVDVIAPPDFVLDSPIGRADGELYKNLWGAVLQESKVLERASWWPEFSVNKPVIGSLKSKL

In test [2] the target is Cyclin-dependent kinase 7 (Homo sapiens, UniProt P50613).
Cyclin-dependent kinase 7, sequence (P50613 whole entry): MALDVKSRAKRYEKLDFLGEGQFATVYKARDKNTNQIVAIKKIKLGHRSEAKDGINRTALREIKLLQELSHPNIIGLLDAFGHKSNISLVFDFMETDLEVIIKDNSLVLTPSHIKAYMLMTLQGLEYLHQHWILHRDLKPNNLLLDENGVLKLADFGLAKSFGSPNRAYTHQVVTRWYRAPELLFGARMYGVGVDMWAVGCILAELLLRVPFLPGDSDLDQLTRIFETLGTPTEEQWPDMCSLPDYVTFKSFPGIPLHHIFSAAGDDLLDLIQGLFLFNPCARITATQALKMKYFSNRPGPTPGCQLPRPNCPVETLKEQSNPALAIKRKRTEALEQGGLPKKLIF
Test [3] deals with Citron Rho-interacting kinase (Homo sapiens, UniProt O14578).
Citron Rho-interacting kinase, sequence (O14578 whole entry, canonical isoform): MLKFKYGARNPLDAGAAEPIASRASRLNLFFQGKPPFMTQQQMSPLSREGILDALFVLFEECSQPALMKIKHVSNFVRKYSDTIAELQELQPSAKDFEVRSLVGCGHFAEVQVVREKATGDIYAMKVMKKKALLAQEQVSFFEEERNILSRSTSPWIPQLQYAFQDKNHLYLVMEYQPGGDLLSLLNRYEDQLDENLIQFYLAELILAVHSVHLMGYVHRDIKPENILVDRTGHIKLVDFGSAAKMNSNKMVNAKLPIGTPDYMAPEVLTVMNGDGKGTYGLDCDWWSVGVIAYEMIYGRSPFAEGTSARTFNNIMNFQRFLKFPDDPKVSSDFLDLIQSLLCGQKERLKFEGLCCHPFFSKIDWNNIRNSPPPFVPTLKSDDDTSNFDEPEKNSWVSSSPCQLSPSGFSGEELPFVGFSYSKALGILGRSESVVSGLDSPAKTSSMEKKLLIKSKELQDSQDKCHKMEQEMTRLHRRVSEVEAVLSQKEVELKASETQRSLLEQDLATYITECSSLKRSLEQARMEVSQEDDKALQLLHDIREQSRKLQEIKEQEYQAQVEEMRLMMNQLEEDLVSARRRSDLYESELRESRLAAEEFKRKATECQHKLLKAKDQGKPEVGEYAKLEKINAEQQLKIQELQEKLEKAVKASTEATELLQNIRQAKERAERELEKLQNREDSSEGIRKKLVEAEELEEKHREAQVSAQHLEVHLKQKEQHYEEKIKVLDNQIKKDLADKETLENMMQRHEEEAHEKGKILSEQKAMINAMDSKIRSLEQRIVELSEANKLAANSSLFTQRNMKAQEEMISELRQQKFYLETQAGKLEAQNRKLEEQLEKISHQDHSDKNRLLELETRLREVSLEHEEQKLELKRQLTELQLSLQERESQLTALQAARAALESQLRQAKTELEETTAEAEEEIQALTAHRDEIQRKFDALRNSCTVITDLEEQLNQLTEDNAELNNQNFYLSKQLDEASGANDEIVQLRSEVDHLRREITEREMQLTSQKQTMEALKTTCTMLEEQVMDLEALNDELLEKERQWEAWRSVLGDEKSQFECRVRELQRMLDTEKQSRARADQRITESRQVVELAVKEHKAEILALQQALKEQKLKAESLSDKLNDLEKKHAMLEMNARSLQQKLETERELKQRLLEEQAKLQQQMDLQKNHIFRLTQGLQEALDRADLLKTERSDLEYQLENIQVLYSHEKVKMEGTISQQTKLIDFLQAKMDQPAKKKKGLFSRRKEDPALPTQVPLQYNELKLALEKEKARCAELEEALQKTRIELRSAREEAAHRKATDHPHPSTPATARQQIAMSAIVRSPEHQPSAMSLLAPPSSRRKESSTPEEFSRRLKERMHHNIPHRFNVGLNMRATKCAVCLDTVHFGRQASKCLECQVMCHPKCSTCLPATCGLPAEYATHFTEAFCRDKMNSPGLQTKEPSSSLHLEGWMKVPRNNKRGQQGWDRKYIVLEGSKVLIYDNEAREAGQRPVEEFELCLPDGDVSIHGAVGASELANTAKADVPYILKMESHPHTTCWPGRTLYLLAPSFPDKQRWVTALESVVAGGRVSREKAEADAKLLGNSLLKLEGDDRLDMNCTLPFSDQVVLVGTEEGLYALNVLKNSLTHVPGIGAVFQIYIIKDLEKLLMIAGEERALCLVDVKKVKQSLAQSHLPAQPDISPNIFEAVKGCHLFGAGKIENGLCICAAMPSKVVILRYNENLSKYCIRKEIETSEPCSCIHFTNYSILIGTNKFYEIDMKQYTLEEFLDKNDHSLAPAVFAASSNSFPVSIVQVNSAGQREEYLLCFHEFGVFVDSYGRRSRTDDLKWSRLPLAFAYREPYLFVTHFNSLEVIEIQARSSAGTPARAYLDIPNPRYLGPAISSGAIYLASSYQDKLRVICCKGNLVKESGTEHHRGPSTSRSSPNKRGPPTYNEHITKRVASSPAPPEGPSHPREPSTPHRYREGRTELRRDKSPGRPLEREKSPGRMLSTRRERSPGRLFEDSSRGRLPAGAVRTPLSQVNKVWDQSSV
Test [4] has as its target Casein kinase I isoform alpha (Homo sapiens, UniProt P48729).
Test [5] has as its target T2, dCTP pyrophosphatase 1 (Homo sapiens, UniProt Q9H773).
T2 sequence (Q9H773 whole entry): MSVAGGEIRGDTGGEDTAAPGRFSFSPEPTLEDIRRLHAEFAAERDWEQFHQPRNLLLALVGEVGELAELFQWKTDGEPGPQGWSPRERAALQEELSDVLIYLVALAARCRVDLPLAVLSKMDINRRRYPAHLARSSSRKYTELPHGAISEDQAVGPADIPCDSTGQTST

Test [6] addresses Insulin receptor (Homo sapiens, UniProt P06213).
Test [7] addresses Mitogen-activated protein kinase 1 (Homo sapiens, UniProt P28482).
Test [8] addresses Mitogen-activated protein kinase 7 (Homo sapiens, UniProt Q13164).
Test [9] has as its target S-adenosylmethionine synthase isoform type-2 (Homo sapiens, UniProt P31153).
Test [10] concerns the target Serine/threonine-protein kinase PAK 4 (Homo sapiens, UniProt O96013).
Test [11] addresses T3, Membrane-associated tyrosine- and threonine-specific cdc2-inhibitory kinase (Homo sapiens, UniProt Q99640).
T3 sequence (Q99640 whole entry): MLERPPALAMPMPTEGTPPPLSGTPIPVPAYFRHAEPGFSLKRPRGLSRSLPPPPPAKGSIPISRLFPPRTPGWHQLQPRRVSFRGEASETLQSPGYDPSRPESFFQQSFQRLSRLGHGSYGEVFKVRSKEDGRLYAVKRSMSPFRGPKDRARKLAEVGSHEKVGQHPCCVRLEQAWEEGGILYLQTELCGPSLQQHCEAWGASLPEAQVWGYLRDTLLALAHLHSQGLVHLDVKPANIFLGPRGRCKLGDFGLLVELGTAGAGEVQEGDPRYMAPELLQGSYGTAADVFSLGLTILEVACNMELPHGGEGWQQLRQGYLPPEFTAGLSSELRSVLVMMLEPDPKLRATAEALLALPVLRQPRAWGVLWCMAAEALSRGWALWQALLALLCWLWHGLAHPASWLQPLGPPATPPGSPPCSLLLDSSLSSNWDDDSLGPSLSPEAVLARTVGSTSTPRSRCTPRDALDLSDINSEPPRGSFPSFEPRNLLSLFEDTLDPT

For test [12], the target named is Protein kinase C alpha type (Homo sapiens, UniProt P17252).
The target in test [13] is T4, Septin-9 (Homo sapiens, UniProt Q9UHD8).
T4 sequence (Q9UHD8 whole entry): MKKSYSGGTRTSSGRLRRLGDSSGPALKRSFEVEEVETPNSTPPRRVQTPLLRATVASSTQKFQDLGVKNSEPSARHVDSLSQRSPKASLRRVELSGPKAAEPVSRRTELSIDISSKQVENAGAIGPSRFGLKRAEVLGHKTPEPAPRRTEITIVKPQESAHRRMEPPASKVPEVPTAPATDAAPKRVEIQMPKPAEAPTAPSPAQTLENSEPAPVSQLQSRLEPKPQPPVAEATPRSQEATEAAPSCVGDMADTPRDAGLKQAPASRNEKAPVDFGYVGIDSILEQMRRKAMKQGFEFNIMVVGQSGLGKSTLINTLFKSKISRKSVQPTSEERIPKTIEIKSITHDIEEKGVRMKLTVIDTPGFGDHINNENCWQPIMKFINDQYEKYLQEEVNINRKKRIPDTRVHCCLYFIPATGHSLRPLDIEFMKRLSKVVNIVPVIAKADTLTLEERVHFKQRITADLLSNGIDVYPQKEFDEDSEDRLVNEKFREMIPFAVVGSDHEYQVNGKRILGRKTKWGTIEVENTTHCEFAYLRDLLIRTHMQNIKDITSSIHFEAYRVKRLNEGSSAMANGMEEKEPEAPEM

In test [14] the target is Serine/threonine-protein kinase 16 (Homo sapiens, UniProt O75716).
Serine/threonine-protein kinase 16, sequence (O75716 whole entry): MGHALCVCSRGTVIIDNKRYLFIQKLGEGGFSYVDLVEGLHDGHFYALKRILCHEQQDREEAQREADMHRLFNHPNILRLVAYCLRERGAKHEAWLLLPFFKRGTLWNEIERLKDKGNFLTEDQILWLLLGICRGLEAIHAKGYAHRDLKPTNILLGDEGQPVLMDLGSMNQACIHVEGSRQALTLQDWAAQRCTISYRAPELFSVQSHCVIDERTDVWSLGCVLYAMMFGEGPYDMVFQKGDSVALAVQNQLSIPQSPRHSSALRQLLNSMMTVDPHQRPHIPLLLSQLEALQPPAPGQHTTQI
Note: in the data inactive means no Kd found up to 30 µM.

Mitogen-activated protein kinase 7, sequence (Q13164 whole entry, canonical isoform): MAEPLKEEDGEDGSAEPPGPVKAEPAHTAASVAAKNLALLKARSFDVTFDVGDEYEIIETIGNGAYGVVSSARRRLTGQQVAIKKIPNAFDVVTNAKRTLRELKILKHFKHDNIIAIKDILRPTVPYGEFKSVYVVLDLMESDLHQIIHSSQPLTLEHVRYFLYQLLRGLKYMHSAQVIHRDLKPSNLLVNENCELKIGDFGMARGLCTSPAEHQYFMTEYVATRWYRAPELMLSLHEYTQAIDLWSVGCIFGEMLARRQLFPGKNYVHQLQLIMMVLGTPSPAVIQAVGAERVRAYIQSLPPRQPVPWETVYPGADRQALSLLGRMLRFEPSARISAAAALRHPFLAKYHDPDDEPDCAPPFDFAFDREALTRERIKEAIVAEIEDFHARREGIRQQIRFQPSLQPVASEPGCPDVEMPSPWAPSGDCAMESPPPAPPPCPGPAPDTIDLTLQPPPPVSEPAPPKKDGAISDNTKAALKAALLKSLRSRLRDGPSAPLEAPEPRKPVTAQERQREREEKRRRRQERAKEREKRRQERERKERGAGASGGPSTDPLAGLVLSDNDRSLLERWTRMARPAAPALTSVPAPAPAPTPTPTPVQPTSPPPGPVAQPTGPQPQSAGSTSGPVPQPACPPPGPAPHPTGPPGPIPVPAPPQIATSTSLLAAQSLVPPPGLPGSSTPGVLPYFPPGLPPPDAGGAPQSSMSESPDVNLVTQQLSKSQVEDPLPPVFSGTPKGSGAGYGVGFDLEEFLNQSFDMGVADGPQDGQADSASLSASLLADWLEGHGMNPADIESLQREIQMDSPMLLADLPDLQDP
Casein kinase I isoform alpha, sequence (P48729 whole entry, canonical isoform): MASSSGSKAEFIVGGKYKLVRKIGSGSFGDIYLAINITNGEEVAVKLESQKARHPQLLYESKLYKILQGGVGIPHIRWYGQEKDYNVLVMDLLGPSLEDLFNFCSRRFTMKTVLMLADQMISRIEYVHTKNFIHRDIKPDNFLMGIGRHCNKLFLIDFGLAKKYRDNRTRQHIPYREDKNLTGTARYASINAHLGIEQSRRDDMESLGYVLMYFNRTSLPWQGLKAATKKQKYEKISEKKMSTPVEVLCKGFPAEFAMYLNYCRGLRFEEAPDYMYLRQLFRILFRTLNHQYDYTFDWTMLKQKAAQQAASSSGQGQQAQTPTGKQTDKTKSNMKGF
S-adenosylmethionine synthase isoform type-2, sequence (P31153 whole entry, canonical isoform): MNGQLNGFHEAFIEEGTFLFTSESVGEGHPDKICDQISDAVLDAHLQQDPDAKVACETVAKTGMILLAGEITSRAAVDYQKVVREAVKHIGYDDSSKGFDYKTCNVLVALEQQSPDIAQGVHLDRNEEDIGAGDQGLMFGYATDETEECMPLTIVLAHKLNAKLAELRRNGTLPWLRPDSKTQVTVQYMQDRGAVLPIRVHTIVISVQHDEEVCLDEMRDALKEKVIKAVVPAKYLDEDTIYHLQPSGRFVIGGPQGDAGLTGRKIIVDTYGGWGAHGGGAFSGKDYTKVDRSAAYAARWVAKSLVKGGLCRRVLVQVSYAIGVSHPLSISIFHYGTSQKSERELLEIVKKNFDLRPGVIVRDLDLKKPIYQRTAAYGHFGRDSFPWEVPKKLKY

Regarding `Cc1cc(Nc2nc(N[C@@H](C)c3ncc(F)cn3)ncc2Cl)n[nH]1` [AZD-1480], the Kd in test [1], in [2], in test [3], in test [4], in test [5] and in test [6] was > 30 µM (inactive) each time. Moreover, the Kd in test [7] is > 30 µM (inactive); in test [8], > 30 µM (inactive); in test [9], > 30 µM (inactive); in test [10], 1.88 µM (active); in [11] it was > 30 µM (inactive); in test [12], > 30 µM (inactive). The Kd in test [13] and in test [14] was > 30 µM (inactive) throughout.

`O=C(Nc1ccc(OC(F)(F)F)cc1)c1sccc1NCc1ccnc2ccccc12` [OSI-930]: the Kd in test [1], in test [2], in test [3], in test [4], in test [5] and in [6] was > 30 µM (inactive) throughout. Further, the Kd in test [7], in test [8], in test [9], in test [10], in test [11] and in test [12] was > 30 µM (inactive) throughout. Also, the Kd in [13] and in [14] was > 30 µM (inactive) throughout.

Take `C=CCN(/C=C1/C(=O)O[C@H](COC)[C@@]2(C)C1=C(O)C(=O)C1=C2[C@H](OC(C)=O)C[C@]2(C)C(=O)CC[C@@H]12)CC=C` [SONOLISIB]: the Kd in [1], in test [2], in [3], in test [4], in [5] and in test [6] was > 30 µM (inactive) each time. The Kd in test [7], in test [8], in test [9], in test [10], in [11] and in test [12] was > 30 µM (inactive) throughout. Besides, the Kd in test [13] and in test [14] was > 30 µM (inactive) each time.

As to `COc1cccc2cc(-c3nc([C@H]4CC[C@H](C(=O)O)CC4)n4ncnc(N)c34)[nH]c12` [OSI-027], the Kd in test [1], in [2], in [3], in [4], in [5] and in test [6] was > 30 µM (inactive) throughout. Further, the Kd in test [7], in [8], in [9], in [10], in test [11] and in [12] was > 30 µM (inactive) in each case. The Kd in test [13] and in test [14] was > 30 µM (inactive) each time.

On to `COc1ccc(-c2ccc3ncc4c(c3c2)n(-c2ccc(N3CCNCC3)c(C(F)(F)F)c2)c(=O)n4C)cn1` [BGT-226 FREE BASE], for which the Kd in test [1], in test [2], in test [3], in [4], in [5] and in test [6] was > 30 µM (inactive) throughout. For the same molecule, the Kd in test [7], in test [8], in [9], in test [10], in test [11] and in [12] was > 30 µM (inactive) throughout. The Kd in [13] and in [14] was > 30 µM (inactive) throughout.

In the case of `Cc1c(Cn2c(C)nc3c(C(=O)O)cc(N4CCOCC4)cc32)cccc1C(F)(F)F` [GSK-2636771], the Kd in [1], in test [2], in [3], in test [4], in test [5] and in test [6] was > 30 µM (inactive) each time. The Kd in test [7], in [8], in [9], in [10], in test [11] and in [12] was > 30 µM (inactive) throughout. Further, the Kd in test [13] and in test [14] was > 30 µM (inactive) in each case.

Consider `Cn1cc(-c2[nH]c3cc(NC(=O)[C@H](N)C4CCCCC4)cc4c3c2C=NNC4=O)cn1`, for which the Kd is > 30 µM (inactive) in test [1]; > 30 µM (inactive) in test [2]; 0.725 µM (active) in [3]; > 30 µM (inactive) in [4]; > 30 µM (inactive) in test [5]; > 30 µM (inactive) in [6]. In addition, the Kd in test [7] is > 30 µM (inactive); in test [8], > 30 µM (inactive); in [9] it was > 30 µM (inactive); in [10] it was 0.053 µM (active); in test [11], > 30 µM (inactive); in test [12], > 30 µM (inactive). The Kd in test [13] and in test [14] was > 30 µM (inactive) throughout.

For `C[C@@H]1COC(Nc2ccc3ncnc(Nc4ccc(OCc5nccs5)c(Cl)c4)c3c2)=N1` [VARLITINIB], the Kd in [1], in test [2], in test [3], in test [4], in test [5] and in [6] was > 30 µM (inactive) each time. For the same molecule, the Kd in test [7], in test [8], in test [9], in [10], in [11] and in test [12] was > 30 µM (inactive) throughout. In addition, the Kd in test [13] and in test [14] was > 30 µM (inactive) throughout.
